The source of these data is EP4424307A1, “PROTECTIVE AGENT FOR USE IN PERITONEAL DIALYSIS” (Zytoprotec GmbH, priority 2023, dated 2024).

Peptide text beside a SMILES is read from it.

The test system of one test is systemic inflammation. As to conditions: addition to PDF in PD patients; tendency for hs-CRP and IL-6, statistical significance with IL-8; cited from earlier work.
Test [1] relates to acute-phase-response- and inflammation-associated proteins within the liver. The experiment in a line: Murine chronic PD exposure model, mass spectrometry proteomics analysis of liver. The settings on record: liver of uremic animals receiving PD; of 57 proteins dysregulated by PD; p<0.05. It is filed as in vivo, mice. An excerpt:
(§1) The inventors conducted a murine PD exposure experiment resembling chronic PD in healthy and uremic mice: The experiment consisted of n=34 animals in six distinct groups.
(§2) The animals were split in the following groups: • 1) Healthy control animals ("control") • 2) Healthy animals receiving PD treatment (via an indwelling catheter) ("PD") • 3) Healthy animals receiving PD treatment (via an indwelling catheter) supplemented with Alanyl-Glutamine ("PD+AG") • 4) Uremic animals ("uremic") • 5) Uremic animals receiving PD treatment (via an indwelling catheter) ("uremic PD") • 6) Uremic animals receiving PD treatment (via an indwelling catheter) supplemented with Alanyl-Glutamine ("uremic PD+AG")
(§3) All animals of the uremic groups (Groups 4, 5, and 6) were subjected to left-sided 2/3 nephrectomy at day 0 of the study, and to complete right-sided nephrectomy at day 7 of the study, thereby inducing chronic kidney disease.
(§4) All animals receiving PD treatment (Groups 2, 3, 5, and 6) had their indwelling catheter implanted at day 7 of the study.
Animals in groups 2,3, 5, and 6 received daily PDF (Dianeal PD4 3.86% [Baxter, Deerfield, IL, USA]) injections via their indwelling catheter starting from day 14 over the course of six weeks, thereby inducing chronic PDF exposure. […]

Test [2] concerns hepatic reperfusion-injury. The settings on record: rat model; cited from earlier work.
Test [3] concerns clinical markers of liver injury. Briefly: Secondary analysis of phase II crossover trial of Alanyl-Glutamine supplementation to PDF, liver tests. The settings on record: patients on chronic PD, n=41, crossover. It is filed as in vivo, human. An excerpt:
To further investigate the effect of Alanyl-Glutamine supplementation to PDF in human PD-induced hepatic (dys)function, the inventors conducted a secondary analysis of a prospective, multicenter, double-blinded, controlled, randomized, dual-period, 2-treatment, crossover, phase II, proof-of-concept study including eight Austrian centers for Alanyl-Glutamine supplementation to the PDF in patients on chronic PD.
This study cohort and its baseline characteristics have already been previously described by Vychytil et al (8).

The test system of test [4] is PD induced hepatic inflammatory response. The experiment in a line: Murine chronic PD exposure model, liver histology (NAS, Oil Red O, Sirius Red). It is filed as in vivo. As to conditions: uremic mice with PD, PDF supplemented with Alanyl-Glutamine 8 mM.
Description: as §1, §2, §3, §4
Animals in groups 2,3, 5, and 6 received daily PDF (Dianeal PD4 3.86% [Baxter, Deerfield, IL, USA]) injections via their indwelling catheter starting from day 14 over the course of six weeks, thereby inducing chronic PDF exposure.
For animals of groups 3 and 6 the daily PDF injections were supplemented with Alanyl-Glutamine (8 mM) over the course of six weeks.
At sacrifice (day 56 of the study), animal livers were subjected to histologic analysis.
NAFLD activity score (NAS) assessment was conducted as previously described (47) on hematoxylin & eosin (H&E) stained hepatic tissue on one facial field image per mouse.
Steatosis hepatis was assessed by semi-quantitative measurement of Oil Red O stained hepatic tissue with one facial field image per mouse.
Fibrosis hepatis was assessed by semi-quantitative measurement of Sirius Red stained hepatic tissue with one facial field image per mouse.

In test [5] the test system is steatohepatitis and fibrosis. The settings on record: murine NAFLD model; cited from earlier work.
In test [6] the test system is LPS-induced acute liver injury. The settings on record: mice; cited from earlier work.
[7] abbreviates: log10 transformed due to skewness.
[8] abbreviates: H&E liver sections, daily over six weeks, vs uremic PD.

On to `C[C@H](N)C(=O)N[C@@H](CCC(N)=O)C(=O)O` [Alanyl-Glutamine, L-alanyl-L-glutamine] (H-Ala-Gln-OH), for which the “systemic inflammation (hs-CRP, IL-6, IL-8)” value with systemic inflammation is on record as “attenuate systemic inflammation”. Further, the “number of acute-phase-response- and inflammation-associated proteins with significantly altered abundance” value in test [1] came out at 11. In test [2], the hepatic reperfusion-injury entry is “reduce hepatic reperfusion-injury”. Further, in test [3] (setting [7]), the “GGT, Least squares mean (95% CI)” value is 1.41 (1.37 to 1.46) U/L; the “GOT/AST, Least squares mean (95% CI)” value is given as 1.23 (1.19 to 1.27) U/L; the “GPT/ALT, Least squares mean (95% CI)” value is 1.20 (1.15 to 1.25) U/L; the “LDH, Least squares mean (95% CI)” value is listed as 2.30 (2.27 to 2.32) U/L. Further, the “LDH, Difference Alanyl-Glutamine-placebo, estimate ± SE” value in test [3] (log10 transformed, p value 0.0206) was -0.03 ± 0.01 U/L. For the same compound, the “GPT/ALT, Difference Alanyl-Glutamine-placebo, estimate ± SE” value in test [3] (log10 transformed, p value 0.0466) is on record as -0.06 ± 0.03 U/L. Further, the “GOT/AST, Difference Alanyl-Glutamine-placebo, estimate ± SE” value in test [3] (log10 transformed, p value 0.1877) was -0.04 ± 0.03 U/L. Moreover, the “GGT, Difference Alanyl-Glutamine-placebo, estimate ± SE” value in test [3] (log10 transformed, p value 0.4901) is reported as -0.02 ± 0.02 U/L. In addition, in test [4] (setting [8]), the “areas of hepatocyte ballooning” value is “decreased” and the “numbers of inflammatory immune cell infiltrates” value is given as “markedly decreased”. Besides, in test [4] (liver sections), the “PD induced fibrosis (% area of Sirius Red stained tissue)” value was “trends of improvement” and the “PD induced steatosis (% area of Oil Red O stained tissue)” value is “trends of improvement”. Besides, the “NAFLD activity score (NAS)” value in test [4] (daily over six weeks, vs uremic PD, Mann Whitney U test) is listed as “significantly (p<0.05) decreased”. The steatohepatitis and fibrosis result in test [5] is “significantly attenuate steatohepatitis and fibrosis”. Besides, in test [6], the “LPS-induced acute liver injury” value is recorded as “protect mice against LPS-induced acute liver injury”.
